These results are taken from patent US11028066B2, “Inhibitors of lysine specific demethylase-1” (CELGENE QUANTICEL RESEARCH, INC., priority 2014, dated 2021).

The structures appear in SMILES notation. pIC50: −log10 of the molar value.

The target of one assay is full-length human LSD1 (Homo sapiens (Human), UniProt O60341). Briefly: In vitro enzyme inhibition assay LSD-1 (TR-FRET). The following applies: H3K4me1-biotin peptide. Format: biochemical. On the procedure:
This assay determines the ability of a test compound to inhibit LSD1 demethylase activity.
The enzymatic assay of LSD1 activity is based on Time Resolved-Fluorescence Resonance Energy Transfer (TR-FRET) detection.
Plates were read by EnVision Multilabel Reader in TR-FRET mode (excitation at 320 nm, emission at 615 nm and 665 nm) after 1 hour incubation at room temperature.
The ability of the compounds disclosed herein to inhibit LSD1 activity was quantified and the respective IC50 value was determined.
In general terms: TR-FRET usually uses a lanthanide donor and a delayed reading to cut background.

For another assay, the system named is THP-1 (AML) cells. Briefly: LSD1 CD11b cellular assay (flow cytometry). In kind it is cell-based. The following applies: Homo sapiens, THP-1, 96 h; CD11b expressing cells, 4 days incubation. On the procedure:
To analyze LSD1 inhibitor efficacy in cells, a CD11b flow cytometry assay was performed. LSD1 inhibition induces CD11b expression in THP-1 (AML) cells which can be measured by flow cytometry. […] LSD1 test compounds were serially diluted in DMSO. The dilutions were added to each well accordingly to a final concentration of 0.2% DMSO. The cells were incubated at 37 degrees Celsius in 5% CO2 for 4 days. 250 μL of each well was transferred to a well in a 96 well round bottom plate. The plate was centrifuged at 1200 rpm at 4 degrees Celsius in a Beckman Coulter Alegra 6KR centrifuge for 5 minutes. The media was removed leaving the cells at the bottom of the wells. The cells were washed in 100 μL cold HBSS (Hank's Balanced Salt Solution) plus 2% BSA (Bovine Serum Albumin) solution and centrifuged at 1200 rpm at 4 degrees Celsius for 5 minutes. The wash was removed. […] The cells were centrifuged and washed two times in 100 μL HBSS plus 2% BSA. After the final spin the cells were resuspended in 100 μL HBSS plus 2% BSA containing 1 ug/mL DAPI (4′,6-diamidino-2-phenylindole). The cells were then analyzed by flow cytometry in a BD FACSAria machine. Cells were analyzed for CD11b expression. The percent of CD11b expressing cells for each inhibitor concentration was used to determine an IC50 curve for each compound analyzed.

On to `CNC1CCN(c2nc(-c3ccc(C#N)cc3)c(-c3ccc(C)cc3)n(C)c2=O)CC1` [Example 20, 4-{4-methyl-6-[4-(methylamino)piperidin-1-yl]-3-(4-methylphenyl)-5-oxo-4,5-dihydropyrazin-2-yl}benzonitrile], for which the pIC50 at full-length human LSD1 and with THP-1 (AML) cells was above 7.00 throughout.
For `Cc1ccc(Cn2cc(-c3ccc(C#N)cc3)nc(N3CCC(N)CC3)c2=O)cc1` [Example 2, 4-[6-(4-aminopiperidin-1-yl)-4-[(4-methylphenyl)methyl]-5-oxo-4,5-dihydropyrazin-2-yl]benzonitrile], the pIC50 (in general, −log10 of the IC50, conventionally taken in molar units) against full-length human LSD1 was above 7.00; with THP-1 (AML) cells it was 6.00 to 7.00.
As to `CCOc1ccc(-c2c(-c3ccc(C#N)c(F)c3)nc(NC[C@H]3CCNC3)c(=O)n2C)cc1` [Example 62, 4-{3-(4-ethoxy-phenyl)-4-methyl-5-oxo-6-[((3S)-pyrrolidin-3-ylmethyl)-amino]-4,5-dihydro-pyrazin-2-yl}-2-fluoro-benzonitrile], the pIC50 on full-length human LSD1 and in the assay with THP-1 (AML) cells was above 7.00 throughout.
Regarding `N#Cc1ccc(-c2cn(Cc3ccccc3F)c(=O)c(N3CCC(N)CC3)n2)cc1` [Example 3, 4-[6-(4-aminopiperidin-1-yl)-4-[(2-fluorophenyl)methyl]-5-oxo-4,5-dihydropyrazin-2-yl]benzonitrile], the pIC50 is above 7.00 at full-length human LSD1 and 6.00 to 7.00 in the assay on THP-1 (AML) cells.
Taken in the same sequence, the figures for `COCCn1c(-c2ccc(C)cc2)c(-c2ccc(C#N)c(F)c2)nc(NC[C@H]2CCNC2)c1=O` [Example 43, 4-(6-{[((3S)-pyrrolidin-3-yl)methyl]amino}-4-(2-methoxyethyl)-3-(4-methylphenyl)-5-oxo(4-hydropyrazin-2-yl))-2-fluorobenzenecarbonitrile] were above 7.00 and above 7.00.
For `Cn1c(-c2ccc(C3CC3)cc2)c(-c2ccc(C#N)c(F)c2)nc(N2CCC(N)CC2)c1=O` [Example 50, 4-[6-(4-amino-piperidin-1-yl)-3-(4-cyclopropyl-phenyl)-4-methyl-5-oxo-4,5-dihydro-pyrazin-2-yl]-2-fluoro-benzonitrile], the pIC50 against full-length human LSD1 and in the assay on THP-1 (AML) cells was above 7.00 throughout.
Turning to `Cc1ccc(-c2c(-c3ccc(C#N)cc3)nc(NC[C@@H]3CCNC3)c(=O)n2C)cc1` [Example 18, 4-[4-methyl-3-(4-methylphenyl)-5-oxo-6-{[(3R)-pyrrolidin-3-ylmethyl]amino}-4,5-dihydropyrazin-2-yl]benzonitrile], the negative logarithm of the IC50 (pIC50) on full-length human LSD1 and in the assay with THP-1 (AML) cells was above 7.00 each time.
Take `N#Cc1ccc(-c2nc(N3CCC(N)CC3)c(=O)n(CCO)c2-c2ccc(C3CC3)cc2)cc1` [Example 38, 4-[6-(4-amino-piperidin-1-yl)-3-(4-cyclopropyl-phenyl)-4-(2-hydroxy-ethyl)-5-oxo-4,5-dihydro-pyrazin-2-yl]-benzonitrile]: the pIC50 against full-length human LSD1 and in the assay on THP-1 (AML) cells was above 7.00 each time.
In the case of `CNC1CCN(c2cc(-c3ccc(C#N)c(F)c3)c(-c3ccc(OC)cc3)n(C)c2=O)CC1` [Example 79, 2-fluoro-4-{2-(4-methoxyphenyl)-1-methyl-5-[4-(methylamino)piperidyl]-6-oxo(3-hydropyridyl)}benzenecarbonitrile], the pIC50 at full-length human LSD1 and with THP-1 (AML) cells was above 7.00 in each case.
As for `COc1ccc(-c2c(-c3ccc(C#N)c(F)c3)cc(N3CCC(N)CC3)c(=O)n2CC2CC2)cc1` [Example 85, 4-[5-(4-aminopiperidin-1-yl)-1-(cyclopropylmethyl)-2-(4-methoxyphenyl)-6-oxopyridin-3-yl]-2-fluorobenzonitrile], the pIC50 on full-length human LSD1 and with THP-1 (AML) cells was above 7.00 throughout.
In the case of `COCCCn1c(-c2ccc(C)cc2)c(-c2ccc(C#N)cc2)nc(N2CCC(N)CC2)c1=O` [Example 39, 4-[6-(4-amino-piperidin-1-yl)-4-(3-methoxy-propyl)-5-oxo-3-p-tolyl-4,5-dihydro-pyrazin-2-yl]-benzonitrile], the pIC50 on full-length human LSD1 and in the assay on THP-1 (AML) cells was above 7.00 each time.
Regarding `CCc1ccc(-c2c(-c3ccc(C#N)c(F)c3)nc(NC[C@H]3CCNC3)c(=O)n2C)cc1` [Example 57, 4-{3-(4-ethyl-phenyl)-4-methyl-5-oxo-6-[((3S)-pyrrolidin-3-ylmethyl)-amino]-4,5-dihydro-pyrazin-2-yl}-2-fluoro-benzonitrile], the pIC50 at full-length human LSD1 and in the assay on THP-1 (AML) cells was above 7.00 each time.
As to `Cc1ccc(-c2c(-c3ccc(C#N)nc3)nc(N3CCC(N)CC3)c(=O)n2C)cc1` [Example 19, 5-[6-(4-aminopiperidin-1-yl)-4-methyl-3-(4-methylphenyl)-5-oxo-4,5-dihydropyrazin-2-yl]pyridine-2-carbonitrile], the pIC50 against full-length human LSD1 and with THP-1 (AML) cells was above 7.00 in each case.
Consider `N#Cc1ccc(-c2cn(Cc3cccc(Cl)c3)c(=O)c(N3CCC(N)CC3)n2)cc1` [Example 4, 4-[6-(4-aminopiperidin-1-yl)-4-(3-chloro-benzyl)-5-oxo-4,5-dihydro-pyrazin-2-yl]-benzonitrile], for which the negative logarithm of the IC50 (pIC50) is above 7.00 on full-length human LSD1 and 5.00 to 6.00 in the assay with THP-1 (AML) cells.
In the case of `Cn1c(-c2ccc(C3CC3)cc2)c(-c2ccc(C#N)c(F)c2)nc(NC[C@H]2CCNC2)c1=O` [Example 59, 4-{3-(4-cyclopropyl-phenyl)-4-methyl-5-oxo-6-[((3S)-pyrrolidin-3-ylmethyl)-amino]-4,5-dihydro-pyrazin-2-yl}-2-fluoro-benzonitrile], the pIC50 against full-length human LSD1 and in the assay on THP-1 (AML) cells was above 7.00 each time.
In the case of `COc1ccc(-c2c(-c3ccc(C#N)cc3)cc(N3CCC(N)CC3)c(=O)n2CC2CC2)cc1` [Example 81, 4-[5-(4-aminopiperidin-1-yl)-1-(cyclopropylmethyl)-2-(4-methoxyphenyl)-6-oxopyridin-3-yl]benzonitrile], the pIC50 at full-length human LSD1 and with THP-1 (AML) cells was above 7.00 in each case.
On to `CCc1ccc(-c2c(-c3ccc(C#N)c(F)c3)cc(NC[C@H]3CCNC3)c(=O)n2C)cc1` [Example 72, (S)-4-(2-(4-ethylphenyl)-1-methyl-6-oxo-5-(pyrrolidin-3-ylmethylamino)-1,6-dihydropyridin-3-yl)-2-fluorobenzonitrile], for which the pIC50 on full-length human LSD1 and in the assay with THP-1 (AML) cells was above 7.00 each time.
Regarding `Cn1c(-c2ccc(C3CC3)cc2)c(-c2ccc(C#N)cc2)nc(NC[C@@H]2CCNC2)c1=O` [Example 35, 4-[3-(4-cyclopropylphenyl)-4-methyl-5-oxo-6-{[(3R)-pyrrolidin-3-ylmethyl]amino}-4,5-dihydropyrazin-2-yl]benzonitrile], the figures for the pIC50 against full-length human LSD1 and with THP-1 (AML) cells were above 7.00 and 6.00 to 7.00, respectively.
Turning to `N#Cc1ccc(-c2cn(CC3CC3)c(=O)c(N3CCC(N)CC3)n2)cc1F` [Example 7, 4-[6-(4-amino-piperidin-1-yl)-4-cyclopropylmethyl-5-oxo-4,5-dihydro-pyrazin-2-yl]-2-fluoro-benzonitrile], the results for the pIC50 against full-length human LSD1 and in the assay on THP-1 (AML) cells were above 7.00 and 5.00 to 6.00, respectively.
The like results for `CCn1c(-c2ccc(C)cc2)c(-c2ccc(C#N)cc2)nc(N2CCC(N)CC2)c1=O` [Example 26, 4-[6-(4-aminopiperidin-1-yl)-4-ethyl-3-(4-methylphenyl)-5-oxo-4,5-dihydropyrazin-2-yl]benzonitrile] were, in that order, above 7.00 and above 7.00.
As for `COc1ccc(-c2c(-c3ccc(C#N)c(F)c3)nc(N3CCC(N)CC3)c(=O)n2CCCC(N)=O)cc1` [Example 90, 4-[3-(4-aminopiperidyl)-5-(4-cyano-3-fluorophenyl)-6-(4-methoxyphenyl)-2-oxohydropyrazinyl]butanamide], the negative-log IC50 (pIC50) on full-length human LSD1 and in the assay with THP-1 (AML) cells was above 7.00 in each case.
Consider `COc1ccc(-c2c(-c3ccc(C#N)cc3)nc(NC[C@@H]3CCNC3)c(=O)n2C)cc1` [Example 32, 4-[3-(4-methoxyphenyl)-4-methyl-5-oxo-6-{[(3R)-pyrrolidin-3-ylmethyl]amino}-4,5-dihydropyrazin-2-yl]benzonitrile], for which the pIC50 against full-length human LSD1 is above 7.00; in the assay with THP-1 (AML) cells it was 6.00 to 7.00.
With `CNC1CCN(c2nc(-c3ccc(C#N)c(F)c3)c(-c3ccc(C)cc3)n(CCCO)c2=O)CC1` [Example 64, 2-Fluoro-4-[4-(3-hydroxy-propyl)-6-(4-methylamino-piperidin-1-yl)-5-oxo-3-p-tolyl-4,5-dihydro-pyrazin-2-yl]-benzonitrile], the pIC50 against full-length human LSD1 and in the assay with THP-1 (AML) cells was above 7.00 throughout.
Consider `Cn1c(-c2ccc(OCC3CC3)cc2)c(-c2ccc(C#N)c(F)c2)nc(NC[C@H]2CCNC2)c1=O` [Example 61, 4-{3-(4-cyclopropylmethoxy-phenyl)-4-methyl-5-oxo-6-[((3S)-pyrrolidin-3-ylmethyl)-amino]-4,5-dihydro-pyrazin-2-yl}-2-fluoro-benzonitrile], for which the pIC50 on full-length human LSD1 and in the assay on THP-1 (AML) cells was above 7.00 each time.
Compound `CCn1c(-c2ccc(OC)cc2)c(-c2ccc(C#N)c(F)c2)cc(N2CCC(N)CC2)c1=O` [Example 87, 4-[5-(4-aminopiperidin-1-yl)-1-ethyl-2-(4-methoxyphenyl)-6-oxopyridin-3-yl]-2-fluorobenzonitrile] showed a negative logarithm of the IC50 (pIC50) in the assay with THP-1 (AML) cells above 7.00.
